US20110300570A1, “METHOD AND SYSTEM FOR GENERATING SPATIALLY AND TEMPORALLY CONTROLLABLE CONCENTRATION GRADIENTS” (THE BRIGHAM AND WOMEN'S HOSPITAL, INC., priority 2008, published 2011)

Legend:
[1] = test system: HL-1 cells; experiment: Cytotoxicity testing with HL-1 cells seeded in a 96-well plate; type: cell-based; details: HL-1 cells in 96-well plate, various concentrations of toxin
Experimental: In this example, the stabilized, spatially and temporally controllable concentration gradient technique is utilized for cytotoxicity testing. A cardiac muscle cell line (HL-1) is used to investigate the cytotoxicity of Alpha-cypermethrin, a cardiac toxin. Three drops of 2 μL medium containing 20 mM Alpha-cypermethrin were loaded consecutively into the micro-devices with HL-1 cells seeded along the channel. […] The cytotoxicity of the toxin gradient was further tested on the HL-1 cells by conducting a live-dead assay. […] According to the correlation between cell viability and morphology changes with respect to Alpha-cypermethrin concentration obtained from the toxicity testing on HL-1 cells seeded in 96-well plates, the experimental conditions used in this example established a concentration gradient of the toxin from 12.5 mM to 0 mM along the 5 cm-length channel based on the assay conducted in this example.

[2] = test system: HL-1 cells; experiment: Cytotoxicity testing of a stabilized toxin concentration gradient on HL-1 cells in the microfluidic channel; type: cell-based
Experimental: HL-1 cells (Cardiac muscle cell line) were cultured with medium containing 87% Claycomb Medium, 10% Fetal Bovine Serum (FBS), 1% Penicillin/Streptomycin, 1% Norepinephrine, and 1% L-Glutamine at 37° C. in a humidified 5% CO2/95% air incubator. To enhance the cell adhesion, the bottom glass slide was coated with a mixture of extracellular matrix (0.02% gelatin (w/w) and 5 μg/mL fibronectin) after the top channel was bonded to the bottom glass slide. To seed the cells into the microfluidic device, the cells were trypsinized and seeded through the outlet port using dynamic seeding at a cell density of 2×10^6 cells mL-1 that allowed uniform cell distribution. Cells were cultured for 2 h to ensure attachment. The medium was then changed and 3 drops of 2 μL medium containing 20 mM Alpha-cypermethrin were introduced by passive pumping and a concentration gradient was established by leaving the microfluidic device in the hood for 5 min to allow for evaporation-induced backflow. The microfluidic device was then transferred to a humidified incubator where the concentration gradient of the toxin was stabilized and the cells were treated for 4 h. […] ImageJ was used to quantify the fluorescence images of live-dead staining of the cells. At least three images were used for quantification of the cell viability. […]

CC1(C)C(C=C(Cl)Cl)C1C(=O)OC(C#N)c1cccc(Oc2ccccc2)c1 (stereo not drawn) [Alpha-cypermethrin]
cell morphology [1]: drastic morphological change
cell morphology along the channel ([2]; HL-1 cells exposed 4 h to toxin gradient (loaded 20 mM; gradient 12.5 mM to 0 mM along 5 cm channel)): more severe effects observed in the regions containing higher concentrations of toxin
cell viability (live-dead assay) ([2]; HL-1 cells exposed 4 h to toxin gradient along the channel): correlation of cell viability was found with the toxin concentration gradient
